Data taken from ChEMBL document CHEMBL3797105, “Investigation of triazole-linked indole and oxindole glycoconjugates as potential anticancer agents: novel Akt/PKB signaling pathway inhibitors” (Medchemcomm, 2016).

System: not listed separately
Assay: Cytotoxicity against human DU145 cells after 48 hrs by sulforhodamine B assay
Assay type: functional, cell-based
Settings: DU-145, 48 h

Structure (SMILES) | IC50 [µM]
CC(=O)OC[C@H]1O[C@@H](n2cc(Cn3cc(/C=C/C(=O)c4c5ccccc5cc5ccccc45)c4ccccc43)nn2)[C@H](OC(C)=O)[C@@H](OC(C)=O)[C@@H]1OC(C)=O | 58.1
CC(=O)OC[C@H]1O[C@@H](n2cc(Cn3cc(/C=C4/C(=O)Nc5ccccc54)c4ccccc43)nn2)[C@H](OC(C)=O)[C@@H](OC(C)=O)[C@@H]1OC(C)=O | > 200
COc1ccc2c(c1)c(/C=C1/C(=O)Nc3ccc(F)cc31)cn2Cc1cn([C@@H]2O[C@H](COC(C)=O)[C@@H](OC(C)=O)[C@H](OC(C)=O)[C@H]2OC(C)=O)nn1 | > 200
CC(=O)OC[C@H]1O[C@@H](n2cc(CN3C(=O)/C(=C/c4cccs4)c4ccccc43)nn2)[C@H](OC(C)=O)[C@@H](OC(C)=O)[C@@H]1OC(C)=O | 23.4
CC(=O)OC[C@H]1O[C@@H](n2cc(Cn3cc(C=O)c4ccccc43)nn2)[C@H](OC(C)=O)[C@@H](OC(C)=O)[C@@H]1OC(C)=O | 58.7
CC(=O)OC[C@H]1O[C@@H](n2cc(Cn3cc(/C=C/C(=O)c4cccnc4)c4ccccc43)nn2)[C@H](OC(C)=O)[C@@H](OC(C)=O)[C@@H]1OC(C)=O | 29
CC(=O)OC[C@H]1O[C@@H](n2cc(CN3C(=O)/C(=C/c4ccc(N(C)C)cc4)c4ccccc43)nn2)[C@H](OC(C)=O)[C@@H](OC(C)=O)[C@@H]1OC(C)=O | 11.2

System: A549
Assay: Cytotoxicity against human A549 cells after 48 hrs by sulforhodamine B assay
Assay type: functional, cell-based
Settings: A549, 48 h

Structure (SMILES) | IC50 [µM]
CC(=O)OC[C@H]1O[C@@H](n2cc(Cn3cc(/C=C/C(=O)c4c5ccccc5cc5ccccc45)c4ccccc43)nn2)[C@H](OC(C)=O)[C@@H](OC(C)=O)[C@@H]1OC(C)=O | 46.8
CC(=O)OC[C@H]1O[C@@H](n2cc(Cn3cc(/C=C4/C(=O)Nc5ccccc54)c4ccccc43)nn2)[C@H](OC(C)=O)[C@@H](OC(C)=O)[C@@H]1OC(C)=O | > 200
COc1ccc2c(c1)c(/C=C1/C(=O)Nc3ccc(F)cc31)cn2Cc1cn([C@@H]2O[C@H](COC(C)=O)[C@@H](OC(C)=O)[C@H](OC(C)=O)[C@H]2OC(C)=O)nn1 | > 200
CC(=O)OC[C@H]1O[C@@H](n2cc(CN3C(=O)/C(=C/c4cccs4)c4ccccc43)nn2)[C@H](OC(C)=O)[C@@H](OC(C)=O)[C@@H]1OC(C)=O | 20.8
CC(=O)OC[C@H]1O[C@@H](n2cc(Cn3cc(C=O)c4ccccc43)nn2)[C@H](OC(C)=O)[C@@H](OC(C)=O)[C@@H]1OC(C)=O | > 200
CC(=O)OC[C@H]1O[C@@H](n2cc(Cn3cc(/C=C/C(=O)c4cccnc4)c4ccccc43)nn2)[C@H](OC(C)=O)[C@@H](OC(C)=O)[C@@H]1OC(C)=O | 39.8
CC(=O)OC[C@H]1O[C@@H](n2cc(CN3C(=O)/C(=C/c4ccc(N(C)C)cc4)c4ccccc43)nn2)[C@H](OC(C)=O)[C@@H](OC(C)=O)[C@@H]1OC(C)=O | 19.4

System: MCF7
Assay: Cytotoxicity against human MCF7 cells after 48 hrs by sulforhodamine B assay
Assay type: functional, cell-based
Settings: MCF7, 48 h

Structure (SMILES) | IC50 [µM]
CC(=O)OC[C@H]1O[C@@H](n2cc(Cn3cc(/C=C/C(=O)c4c5ccccc5cc5ccccc45)c4ccccc43)nn2)[C@H](OC(C)=O)[C@@H](OC(C)=O)[C@@H]1OC(C)=O | 44
CC(=O)OC[C@H]1O[C@@H](n2cc(Cn3cc(/C=C4/C(=O)Nc5ccccc54)c4ccccc43)nn2)[C@H](OC(C)=O)[C@@H](OC(C)=O)[C@@H]1OC(C)=O | 22.2
COc1ccc2c(c1)c(/C=C1/C(=O)Nc3ccc(F)cc31)cn2Cc1cn([C@@H]2O[C@H](COC(C)=O)[C@@H](OC(C)=O)[C@H](OC(C)=O)[C@H]2OC(C)=O)nn1 | > 200
CC(=O)OC[C@H]1O[C@@H](n2cc(CN3C(=O)/C(=C/c4cccs4)c4ccccc43)nn2)[C@H](OC(C)=O)[C@@H](OC(C)=O)[C@@H]1OC(C)=O | 28.1
CC(=O)OC[C@H]1O[C@@H](n2cc(Cn3cc(C=O)c4ccccc43)nn2)[C@H](OC(C)=O)[C@@H](OC(C)=O)[C@@H]1OC(C)=O | 25.2
CC(=O)OC[C@H]1O[C@@H](n2cc(Cn3cc(/C=C/C(=O)c4cccnc4)c4ccccc43)nn2)[C@H](OC(C)=O)[C@@H](OC(C)=O)[C@@H]1OC(C)=O | 22.3
CC(=O)OC[C@H]1O[C@@H](n2cc(CN3C(=O)/C(=C/c4ccc(N(C)C)cc4)c4ccccc43)nn2)[C@H](OC(C)=O)[C@@H](OC(C)=O)[C@@H]1OC(C)=O | 25.2

System: not listed separately
Assay: Cytotoxicity against mouse NIH/3T3 cells after 48 hrs by sulforhodamine B assay
Settings: NIH3T3, 48 h

Structure (SMILES) | IC50 [µM]
CC(=O)OC[C@H]1O[C@@H](n2cc(Cn3cc(/C=C/C(=O)c4c5ccccc5cc5ccccc45)c4ccccc43)nn2)[C@H](OC(C)=O)[C@@H](OC(C)=O)[C@@H]1OC(C)=O | > 200
CC(=O)OC[C@H]1O[C@@H](n2cc(Cn3cc(/C=C4/C(=O)Nc5ccccc54)c4ccccc43)nn2)[C@H](OC(C)=O)[C@@H](OC(C)=O)[C@@H]1OC(C)=O | > 200
COc1ccc2c(c1)c(/C=C1/C(=O)Nc3ccc(F)cc31)cn2Cc1cn([C@@H]2O[C@H](COC(C)=O)[C@@H](OC(C)=O)[C@H](OC(C)=O)[C@H]2OC(C)=O)nn1 | > 200
CC(=O)OC[C@H]1O[C@@H](n2cc(CN3C(=O)/C(=C/c4cccs4)c4ccccc43)nn2)[C@H](OC(C)=O)[C@@H](OC(C)=O)[C@@H]1OC(C)=O | 48.1
CC(=O)OC[C@H]1O[C@@H](n2cc(Cn3cc(C=O)c4ccccc43)nn2)[C@H](OC(C)=O)[C@@H](OC(C)=O)[C@@H]1OC(C)=O | > 200
CC(=O)OC[C@H]1O[C@@H](n2cc(Cn3cc(/C=C/C(=O)c4cccnc4)c4ccccc43)nn2)[C@H](OC(C)=O)[C@@H](OC(C)=O)[C@@H]1OC(C)=O | > 200
CC(=O)OC[C@H]1O[C@@H](n2cc(CN3C(=O)/C(=C/c4ccc(N(C)C)cc4)c4ccccc43)nn2)[C@H](OC(C)=O)[C@@H](OC(C)=O)[C@@H]1OC(C)=O | 12.7

System: HeLa
Assay: Cytotoxicity against human HeLa cells after 48 hrs by sulforhodamine B assay
Assay type: functional, cell-based
Settings: not given

Structure (SMILES) | IC50 [µM]
CC(=O)OC[C@H]1O[C@@H](n2cc(Cn3cc(/C=C/C(=O)c4c5ccccc5cc5ccccc45)c4ccccc43)nn2)[C@H](OC(C)=O)[C@@H](OC(C)=O)[C@@H]1OC(C)=O | 165
CC(=O)OC[C@H]1O[C@@H](n2cc(Cn3cc(/C=C4/C(=O)Nc5ccccc54)c4ccccc43)nn2)[C@H](OC(C)=O)[C@@H](OC(C)=O)[C@@H]1OC(C)=O | > 200
COc1ccc2c(c1)c(/C=C1/C(=O)Nc3ccc(F)cc31)cn2Cc1cn([C@@H]2O[C@H](COC(C)=O)[C@@H](OC(C)=O)[C@H](OC(C)=O)[C@H]2OC(C)=O)nn1 | > 200
CC(=O)OC[C@H]1O[C@@H](n2cc(CN3C(=O)/C(=C/c4cccs4)c4ccccc43)nn2)[C@H](OC(C)=O)[C@@H](OC(C)=O)[C@@H]1OC(C)=O | 36.9
CC(=O)OC[C@H]1O[C@@H](n2cc(Cn3cc(C=O)c4ccccc43)nn2)[C@H](OC(C)=O)[C@@H](OC(C)=O)[C@@H]1OC(C)=O | 44.5
CC(=O)OC[C@H]1O[C@@H](n2cc(Cn3cc(/C=C/C(=O)c4cccnc4)c4ccccc43)nn2)[C@H](OC(C)=O)[C@@H](OC(C)=O)[C@@H]1OC(C)=O | > 200
CC(=O)OC[C@H]1O[C@@H](n2cc(CN3C(=O)/C(=C/c4ccc(N(C)C)cc4)c4ccccc43)nn2)[C@H](OC(C)=O)[C@@H](OC(C)=O)[C@@H]1OC(C)=O | 26.3
